From US8697709B2, “Fused ring heteroaryl kinase inhibitors” (The Regents of the University of California, priority 2008, dated 2014)
Numbering of substitutions follows the chain as printed. Read-outs that look alike come from different tables or passages of the source.

Legend:
[1] = molecular target: T1, T315A Abl (Homo sapiens, UniProt P00519, T315A); experiment: In vitro kinase assay, T315A Abl; type: biochemical
T1 sequence (P00519 242-493 T315A limits assumed): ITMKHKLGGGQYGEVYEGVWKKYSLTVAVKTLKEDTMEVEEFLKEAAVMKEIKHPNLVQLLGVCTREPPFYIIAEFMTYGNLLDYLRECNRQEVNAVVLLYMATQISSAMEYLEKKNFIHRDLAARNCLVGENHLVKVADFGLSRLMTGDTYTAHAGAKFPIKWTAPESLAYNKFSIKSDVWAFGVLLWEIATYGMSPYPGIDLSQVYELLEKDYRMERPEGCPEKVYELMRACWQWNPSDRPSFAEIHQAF
Procedure: (§1) Kinase reactions were initiated by the addition of […] cold ATP supplemented with 5 mCi γ^32P ATP and allowed to proceed at room temperature (RT). At 10 minutes […] of the reactions were spotted onto phosphocellulose sheets (P81, Whatman) and subsequently soaked in wash buffer (1.0% (v/v) phosphoric acid). The sheets were washed five times in buffer, dried, and transferred radioactivity was measured by phosphorimaging using a TyphoonTM scanner (Molecular Dynamics). Radioactive counts were quantified using ImageQuantTM software, and titration data were fit to a sigmoidal dose response to derive IC50 values using the Prism® software package. Dose responses were based on a 12 point inhibitor titration, using 1⁄3 dilutions starting from […]. Experiments were completed 2-4 times to derive mean values.

[2] = molecular target: T2, Abl (Homo sapiens, UniProt P00519); experiment: In vitro kinase assay (32P peptide phosphorylation), WT Abl; type: biochemical
T2 sequence (P00519 242-493 limits assumed): T1 sequence (P00519 242-493 T315A limits assumed) with A74T

[3] = molecular target: c-Src (Gallus gallus, UniProt P00523); experiment: In vitro kinase assay (32P peptide phosphorylation), WT Src; type: biochemical
[4] = molecular target: T338G Src (Gallus gallus, UniProt P00523, T338G); experiment: In vitro kinase assay, T338G Src; type: biochemical
Procedure: as §1

[5] = molecular target: T3, T315I Abl (Homo sapiens, UniProt P00519, T315I); experiment: In vitro kinase assay, T315I Abl; type: biochemical; settings: Table 1b
T3 sequence (P00519 242-493 T315I limits assumed): T1 sequence (P00519 242-493 T315A limits assumed) with A74I
Procedure: as §1

[6] = system: parental BaF3 cells; experiment: Cell proliferation (Resazurin) of parental BaF3 cells; type: cell-based; settings: grown with recombinant IL-3; especially at 1 mM inhibitor
From the text: The ability of AD57 to inhibit Bcr-Abl and T315I Bcr-Abl was examined in a cell based assay. The Bcr-Abl oncogene was transduced into BaF3 cells, rendering them IL-3-independent. “IL-3” refers to interleukin 3 which in human maps to gene locus 5q31.1, as known in the art. Recombinant IL-3 is available commercially. BaF3 is a hematopoietic cell line that is normally dependent on IL-3 for growth and proliferation. However, through expression of activated Bcr-Abl, the cells become transformed to an IL-3 independent state. In this assay, cell proliferation is directly correlated to the activity of Bcr-Abl. Wild-type Bcr-Abl, T315I Bcr-Abl, and parental BaF3 cells were treated with AD57 (Cmpd 5) at the indicated concentrations for two days. The parental BaF3 cells, but not the Bcr-Abl transduced cells, were grown in the presence of recombinant IL-3 during the time course of this experiment. After the two day treatment, cell proliferation was quantified using the dye Resazurin, which is converted into a fluorescently detectable form only when metabolized by living cells.
It is possible to inhibit the growth of BaF3 cells transduced with Bcr-Abl through non-specific inhibition mediated toxicity. Therefore, the effects of the inhibitors on the growth of parental BaF3 cells have also been measured.

[7] = system: Bcr-Abl transduced BaF3 cells; experiment: Cell proliferation (Resazurin) of Bcr-Abl transduced BaF3 cells; type: cell-based; settings: two day treatment, without IL-3
[8] = Table 1a, read-out: IC50 WT Abl
[9] = Table 1a, read-out: IC50 WT Src
[10] = Table 1b, read-out: IC50 WT Abl
[11] = Table 1b, read-out: IC50 WT Src

Row | SMILES | IC50 [5] [nM] | IC50 [2, 10] [nM] | IC50 [3, 11] [nM] | IC50 ([4]; Table 1b) [nM] | IC50 ([1]; Table 1b) [nM] | further results
1 | CC(C)n1nc(Cc2cccc(NC(=O)Nc3cccc(C(F)(F)F)c3)c2)c2c(N)ncnc21 [AD36, 1-(3-((4-amino-1-isopropyl-1H-pyrazolo[3,4-d]pyrimidin-3-yl)methyl)phenyl)-3-(3-(trifluoromethyl)phenyl)urea] | – | – | – | – | – | IC50 ([1]; Table 1a): < 1000 nM; IC50 [2, 8]: 1000 to 5000 nM; IC50 [3, 9]: 1000 to 5000 nM; IC50 ([4]; Table 1a): < 1000 nM
2 | CC(C)n1nc(-c2ccc(NC(=O)Nc3cccc(C(F)(F)F)c3)cc2)c2c(N)ncnc21 [AD57, 1-(4-(4-amino-1-isopropyl-1H-pyrazolo[3,4-d]pyrimidin-3-yl)phenyl)-3-(3-(trifluoromethyl)phenyl)urea] | < 1000 | < 1000 | < 1000 | < 1000 | – | IC50 ([2]; unphosphorylated kinase domain, 100 mM ATP, read-out: IC50 for Abl): 41 nM; inhibition of growth of parental BaF3 cells [6]: but not parental BaF3 cells; IC50 ([3]; unphosphorylated kinase domain, 100 mM ATP, read-out: IC50 for c-Src): 25 nM; inhibition of growth of Bcr-Abl BaF3 cells [7]: equally inhibits the growth
3 | CC(C)n1nc(-c2ccc(NC(=O)Nc3ccccc3)cc2)c2c(N)ncnc21 [AD58] | < 1000 | < 1000 | < 1000 | – | – | –
4 | CC(C)n1nc(-c2ccc(NC(=O)Nc3cccc(C(F)(F)F)c3)cc2)c2c(NC(=O)C3CCCC3)ncnc21 [AD62] | < 1000 | < 1000 | < 1000 | < 1000 | < 1000 | –
5 | CC(C)n1nc(-c2ccc(NC(=O)Nc3cccc(C(F)(F)F)c3)cc2)c2c(NC(=O)c3ccc(C(C)(C)C)cc3)ncnc21 [AD63] | < 1000 | > 5000 | > 5000 | 1000 to 5000 | > 5000 | –
6 | Nc1ncnc2c1c(Cc1cccc(NC(=O)Nc3cccc(C(F)(F)F)c3)c1)nn2C1CCCC1 [BB10, 1-(3-((4-amino-1-cyclopentyl-1H-pyrazolo[3,4-d]pyrimidin-3-yl)methyl)phenyl)-3-(3-(trifluoromethyl)phenyl)urea] | – | – | – | – | – | IC50 ([1]; Table 1a): < 1000 nM; IC50 [2, 8]: 1000 to 5000 nM; IC50 [3, 9]: < 1000 nM; selectivity towards c-Src over Abl ([3]; ratio of IC50 values c-Src vs Abl): approximately 5 fold; IC50 ([4]; Table 1a): < 1000 nM

Second part, led by results:

Row | IC50 [5] [nM] | IC50 [2, 10] [nM] | IC50 [3, 11] [nM] | IC50 ([4]; Table 1b) [nM] | IC50 ([1]; Table 1b) [nM] | SMILES | further results
7 | < 1000 | < 1000 | – | – | – | Cn1nc(-c2ccc(NC(=O)Nc3cccc(C(F)(F)F)c3)cc2)c2c(N)ncnc21 [AD59, 1-(4-(4-amino-1-methyl-1H-pyrazolo[3,4-d]pyrimidin-3-yl)phenyl)-3-(3-(trifluoromethyl)phenyl)urea] | –
8 | < 1000 | < 1000 | – | – | – | Nc1ncnc2c1c(-c1ccc(NC(=O)Nc3cccc(C(F)(F)F)c3)cc1)nn2C1CCCC1 [AD60, 1-(4-(4-amino-1-cyclopentyl-1H-pyrazolo[3,4-d]pyrimidin-3-yl)phenyl)-3-(3-(trifluoromethyl)phenyl)urea] | –
9 | < 1000 | < 1000 | < 1000 | < 1000 | < 1000 | CC(C)n1nc(-c2ccc(NC(=O)Nc3cccc(C(F)(F)F)c3)cc2)c2c(NC(=O)C3CC3)ncnc21 [AD61] | –
